Test: In vitro liver microsome experiment (glucuronidation with UDPGA, UPLC-MS/MS detection)
Type: in vitro ADME
Conditions: pooled human liver microsomes, alamethicin, 37° C., incubation 0 min and 6 h
Protocol: In Vitro Liver Microsome Experiment
Experimental group: 136 μL of 50 mM Tris buffer was added to a 1.5 mL centrifuge tube, added with 20 μL of 100 mM aqueous D-glucaro-1,4-lactone solution, 10 μL of 10 mM aqueous magnesium chloride (MgCl2) solution, 10 μL of 40 mg/mL pooled human liver microsomes, and 2 μL of 50 mg/mL alamethicin, respectively, and preincubated on ice for 15 min; 2 μL of 2 mg/mL substrate (3-PBA) was added, and preincubated with 100 mM uridine diphosphate glucuronic acid (UDPGA) solution for 5 min at 37° C.; 20 μL of preincubated UDPGA solution was added to the reaction system to start the reaction, and incubation proceeded. At 0 min and 6 h, 200 μL of glacial acetonitrile was added to the reaction system to terminate the reaction, respectively. The reaction system was vortexed for 1 min and centrifuged at 13,000 r/min for 10 min at 4° C. All supernatants were put in a test tube, nitrogen-blown at 37° C., and reconstituted with 200 μL of methanol. The samples were analyzed and detected by UPLC-MS/MS. The difference between the blank group and the experimental group was only that 3-PBA was not added, and the difference between the control group and the experimental group was only that UDPGA was not added. […]

**Q.** Which “phase II metabolism (formation of glucuronic acid conjugate) detected by UPLC-MS/MS” value does the source give for `O=C(O)c1cccc(Oc2ccccc2)c1` [3-PBA, 3-phenoxybenzoic acid] here?
**A.** The value was “underwent phase II metabolic reaction”.

**Q.** With `CC1(C)Cc2cccc(O)c2O1` [carbofuran phenol] as the molecule, how does the “phase II metabolism (formation of glucuronic acid conjugate) detected by UPLC-MS/MS” value read?
**A.** The value was “carbofuran phenol-glucuronic acid conjugate was detected”.

— patent publication US12600741B2, “3-phenoxybenzoic acid-glucuronic acid conjugate, and preparation method and use thereof” (Shanxi Medical University, priority 2023, dated 2026)
